Test results taken from patent publication US6635664B1, “Insecticide compositions and method for destroying insects” (priority 1999, dated 2003).
Several values for one entry are separate records, joined by “and”; a condition that tells them apart may be missing. Equal entries are not always repeated.

Columns and labels:
[1] = test system: silverleaf whiteflies; experiment: Test Example 1: spray test on cabbage seedlings infested with silverleaf whiteflies; type: in vivo; settings: 50 ppm, total of adults and larvae on cabbage seedlings; for Number of surviving insects/pot after 8 days: 8 days after spray treatment; for Number of surviving insects/pot before: just before treatment
Protocol: (§1) Cabbage seedlings planted in 3 ounces plastic cup were placed in a net cage containing many living silverleaf whiteflies for 24 hours, so that many silverleaf whiteflies became parasitic on the cabbage seedlings. A designated amount of each of pyriproxyfen EC (commercial name, Lano emulsifiable concentrate : produced by Sumitomo Chemical Co., Ltd.), chlothianidine EC (emulsifiable concentrate prepared by mixing 10 parts of chlothianidine, 8 parts of polyoxyethylenealkyl aryl ether, 2 parts of sodium alkylarylsulfonate and 80 parts of xylene), and the present invention composition prepared according to formulation example 1 was diluted with water, and then sprayed over the cabbage seedlings with a spray gun. The number of silverleaf whiteflies (i.e., the total number of adults and larvae) surviving on the cabbage seedlings was examined just before and after 8 days from the treatment.

[2] = test system: silverleaf whiteflies; experiment: Test Example 2: spray test on cabbage seedlings infested with silverleaf whiteflies (10:1 and 1:10 mixtures); type: in vivo; settings: 10 ppm; just before treatment; total of adults and larvae on cabbage seedlings
Protocol: as §1, with “pyriproxyfen EC.” for “pyriproxyfen EC”, “emulsifiable concentrate:” for “emulsifiable concentrate :”, “prepared by mixing the pyriproxyfen EC with chlothianidine EC at 10:1 and 1:10 by weight” for “prepared according to formulation example 1”

Structure (SMILES) | Number of surviving insects/pot after 8 days [1] [insects/pot] | Number of surviving insects/pot before [1] [insects/pot] | Number of surviving insects/pot before [2]
CN/C(=N\[N+](=O)[O-])NCc1cnc(Cl)s1 [chlothianidine, (E)-1-(2-chlorothiazol-5-ylmethyl)-3-methyl-2-nitroguanidine] | 70 | 66 | 
CC(COc1ccc(Oc2ccccc2)cc1)Oc1ccccn1 (centres unmarked) [pyriproxyfen, 4-phenoxyphenyl 2-(2-pyridyloxy)propyl ether] | 21 | 65 | 81 insects/pot and 62 insects/pot
